# Test results as given in patent publication US8334295B2, “Pyrimidine derivatives as HIV reverse transcriptase inhibitors” (Korea Research Institute of Chemical Technology, priority 2007, dated 2012).
# Columns and labels:
# HIV-IIIb = assay: Antiviral assay in MT-2 cells; format: cell-based; conditions: Human immunodeficiency virus 1, 120 h; HIV-IIIb infected cells, 5 days, CellTiter-Glo; MT-2 or MT-4 cells not stated
# Experimental: For the antiviral assay utilizing MT-2 cells, 50 μL of 2× test concentration of 5-fold serially diluted compound in culture medium with 10% FBS was added to each well of a 96-well plate (9 concentrations) in triplicate. MT-2 cells were infected with HIV-IIIb at a multiplicity of infection (m.o.i) of 0.01 for 3 hours. Fifty microliters of infected cell suspension in culture medium with 10% FBS (˜1.5×10^4 cells) was then added to each well containing […] of diluted compound. The plates were then incubated at 37° C. for 5 days. For the antiviral assay utilizing MT-4 cells, 20 μL of 2× test concentration of 5-fold serially diluted compound in culture medium with 10% FBS was added to each well of a 384-well plate (7 concentrations) in triplicate. MT-4 cells were next mixed with HIV-IIIb at an m.o.i. of 0.1 and 20 μl of virus/cell mixture (2000 cells) was immediately added to each well containing […] of diluted compound. The plates were then incubated at 37° C. for 5 days. After 5 days of incubation, 100 μL of CellTiter-Glo™ Reagent (catalog #G7571, Promega Biosciences, Inc., Madison, Wis.) was added to each well containing MT-2 cells and 40 μL to each well containing MT-4 cells. Cell lysis was carried out by incubation at room temperature for 10 min and chemiluminescence was read.
Structure (SMILES),EC50 (HIV-IIIb) [nM],melting point [°C]
CCOCn1c(C(F)c2cc(C)cc(C)c2)c(C(C)C)c(=O)[nH]c1=O (centres unmarked) [Compound 57],< 10,
C/C=C/Cn1c(C(=O)c2cc(C)cc(C)c2)c(C(C)C)c(=O)[nH]c1=O [Compound 60],< 10,
CCCCn1c(C(=O)c2cc(C)cc(C#N)c2)c(CC)c(=O)[nH]c1=O [Compound 70],< 10,190 to 191
"Cc1cc(C=CC#N)cc(C(=O)c2c(C(C)C)c(=O)[nH]c(=O)n2CC2CC2)c1 [Compound 72, 3-[3-(3-Cyclopropylmethyl-5-isopropyl-2,6-dioxo-1,2,3,6-tetrahydro-pyrimidine-4-carbonyl)-5-methyl-phenyl]-acrylonitrile]",< 10,225 to 226
"CCn1c(C(=O)c2cc(C)cc(C=CC#N)c2)c(C(C)C)c(=O)[nH]c1=O [Compound 73, 3-[3-(3-Ethyl-5-isopropyl-2,6-dioxo-1,2,3,6-tetrahydro-pyrimidine-4-carbonyl)-5-methyl-phenyl]-acrylonitrile]",< 10,174 to 176
"CCCCn1c(C(=O)c2cc(C)cc(C=CC#N)c2)c(C(C)C)c(=O)[nH]c1=O [Compound 74, 3-[3-(3-Butyl-5-isopropyl-2,6-dioxo-1,2,3,6-tetrahydro-pyrimidine-4-carbonyl)-5-methyl-phenyl]-acrylonitrile]",< 10,164 to 165
"CCn1c(C(=O)c2cc(C)cc(CCC#N)c2)c(C(C)C)c(=O)[nH]c1=O [Compound 75, 3-[3-(3-Ethyl-5-isopropyl-2,6-dioxo-1,2,3,6-tetrahydro-pyrimidine-4-carbonyl)-5-methyl-phenyl]-propionitrile]",,173 to 174
"CCCCn1c(C(=O)c2cc(C)cc(CCC#N)c2)c(C(C)C)c(=O)[nH]c1=O [Compound 76, 3-[3-(3-Butyl-5-isopropyl-2,6-dioxo-1,2,3,6-tetrahydro-pyrimidine-4-carbonyl)-5-methyl-phenyl]-propionitrile]",< 10,172 to 173
"Cc1cc(C#N)cc(C(=O)c2c(C(C)C)c(=O)[nH]c(=O)n2C(C)C)c1 [Compound 77, 3-(3,5-Diisopropyl-2,6-dioxo-1,2,3,6-tetrahydro-pyrimidine-4-carbonyl)-5-methyl-benzonitrile]",,278 to 280
"Cc1cc(C#N)cc(C(=O)c2c(C(C)C)c(=O)[nH]c(=O)n2CC(C)C)c1 [Compound 78, 3-(3-Isobutyl-5-isopropyl-2,6-dioxo-1,2,3,6-tetrahydro-pyrimidine-4-carbonyl)-5-methyl-benzonitrile]",,200 to 201
"C=CCCn1c(C(=O)c2cc(C)cc(C#N)c2)c(C(C)C)c(=O)[nH]c1=O [Compound 79, 3-(3-But-3-enyl-5-isopropyl-2,6-dioxo-1,2,3,6-tetrahydro-pyrimidine-4-carbonyl)-5-methyl-benzonitrile]",,133 to 134
"CC=CCn1c(C(=O)c2cc(C)cc(C#N)c2)c(C(C)C)c(=O)[nH]c1=O [Compound 80, 3-(3-But-2-enyl-5-isopropyl-2,6-dioxo-1,2,3,6-tetrahydro-pyrimidine-4-carbonyl)-5-methyl-benzonitrile]",< 10,177 to 178
"Cc1cc(C#N)cc(C(=O)c2c(C(C)C)c(=O)[nH]c(=O)n2CC2(CC(N)=O)CC2)c1 [Compound 85, 2-{1-[6-(3-Cyano-5-methyl-benzoyl)-5-isopropyl-2,4-dioxo-3,4-dihydro-2H-pyrimidin-1-ylmethyl]-cyclopropyl}-acetamide]",,283 to 285
"CCn1c(C(C#N)c2cc(C)cc(C#N)c2)c(C(C)C)c(=O)[nH]c1=O (centres unmarked) [Compound 85, 3-[Cyano-(3-ethyl-5-isopropyl-2,6-dioxo-1,2,3,6-tetrahydro-pyrimidin-4-yl)-methyl]-5-methyl-benzonitrile]",,260 to 261
"Cc1cc(C#N)cc(C(=O)c2c(C(C)C)c(=O)[nH]c(=O)n2CCOC(N)=O)c1 [Compound 86, Carbamic acid 2-[6-(3-cyano-5-methyl-benzoyl)-5-isopropyl-2,4-dioxo-3,4-dihydro-2H-pyrimidin-1-yl]-ethyl ester]",< 10,
"CC=CCn1c(Oc2cc(C)cc(C)c2)c(C(C)C)c(=O)[nH]c1=O [Compound 115, 1-But-2-enyl-6-(3,5-dimethyl-phenoxy)-5-isopropyl-1H-pyrimidine-2,4-dione]",< 10,

# Next, values leading:
EC50 (HIV-IIIb) [nM],melting point [°C],Structure (SMILES)
< 10,,"CCn1c(C(=O)c2cc(C)cc(C#N)c2)c(C(C)C)c(=O)[nH]c1=O [Compound 3, 3-(3-ethyl-5-isopropyl-2,6-dioxo-1,2,3,6-tetrahydro-pyrimidine-4-carbonyl)-5-methyl-benzonitrile]"
< 10,,Cc1cc(C#N)cc(C(=O)c2c(C(C)C)c(=O)[nH]c(=O)n2CC2CC2)c1 [Compound 5]
< 10,,C/C=C(\Cl)Cn1c(C(=O)c2cc(C)cc(C#N)c2)c(C(C)C)c(=O)[nH]c1=O [Compound 6]
< 10,,CCOCn1c(C(=O)c2cc(C)cc(C#N)c2)c(C(C)C)c(=O)[nH]c1=O [Compound 9]
< 10,166 to 167,Cc1cc(C#N)cc(C(=O)c2c(C(C)C)c(=O)[nH]c(=O)n2CCCO)c1 [Compound 25]
< 10,162 to 164,CCOCn1c(C(=O)c2cc(Cl)cc(C#N)c2)c(C(C)C)c(=O)[nH]c1=O [Compound 38]
< 10,202 to 203,CCCn1c(C(=O)c2cc(C)cc(C#N)c2)c(C(C)C)c(=O)[nH]c1=O [Compound 46]
< 10,,"CCCCn1c(C(=O)c2cc(C)cc(C#N)c2)c(C(C)C)c(=O)[nH]c1=O [Compound 47, 3-(3-Butyl-5-isopropyl-2,6-dioxo-1,2,3,6-tetrahydro-pyrimidine-4-carbonyl)-5-methyl-benzonitrile]"
< 10,,CCOCn1c(C(=O)c2cc(C)cc(C)c2)c(C(C)C)c(=O)[nH]c1=O [Compound 54]
< 10,,CCOCn1c(C(=O)c2cc(C)cc(/C=C/C#N)c2)c(C(C)C)c(=O)[nH]c1=O [Compound 56]
